Measurements from patent publication US20150284335A1, “Benzoimidazoles as prolyl hydroxylase inhibitors” (Janssen Pharmaceutica NV, priority 2008, published 2015).
Marks after values point to notes of the source that are not given here.

What was measured:
[1] = target: T1, PHD2181-417 (Homo sapiens, UniProt Q9GZT9); test: PHD enzyme activity assay ([14C]-succinic acid production); type: biochemical; conditions: inhibition of PHD2181-417 activity; HIF-1α peptide 10 μM, [5-14C]-2-oxoglutaric acid, 10 minutes; read-out: Enzyme pIC50 (converted);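 further: enzyme expressed in E. coli BL21, assayed in Tris-HCl pH 7.5 with catalase, DTT and ascorbate, [14C]-succinic acid beta-counted after DNP precipitation of residual 2-oxoglutarate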
T1 construct: histidine tag (N, cleaved yes); Smt3 (SUMO) tag (N, cleaved yes); made in house; host or cells: E. coli BL21 (pBAD vector)

[2] = system: Hep-3B cells; test: Cellular assay: EPO secretion in Hep-3B cells; type: cell-based, human; conditions: 24 hours, percent of EPO secretion relative to assay control compound
[3] = final compound concentration 100 μM
[4] = final compound concentration of 10 μM

T1 sequence (Q9GZT9 181-417): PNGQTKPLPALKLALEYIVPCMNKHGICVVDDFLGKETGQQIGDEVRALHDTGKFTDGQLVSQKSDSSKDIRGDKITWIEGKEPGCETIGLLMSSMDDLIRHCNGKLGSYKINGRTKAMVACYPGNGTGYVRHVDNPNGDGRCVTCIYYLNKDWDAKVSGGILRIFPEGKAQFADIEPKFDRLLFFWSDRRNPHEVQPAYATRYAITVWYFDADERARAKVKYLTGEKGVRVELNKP

## O=C(O)CNC(=O)c1nc2cc(-c3cccc(OCc4ccc(Cl)cc4)c3)ccc2[nH]1 [Example 15, ({5-[3-(4-Chloro-benzyloxy)-phenyl]-1H-benzoimidazole-2-carbonyl}-amino)-acetic acid]
[1]
  IC50: 2.51 µM
[2]; [3]
  Cellular % EPO Stimulation: −3.90%

## O=C(O)CNC(=O)c1nc2cc(-c3cccc(OCc4ccccc4F)c3)ccc2[nH]1 [Example 17, ({5-[3-(2-Fluoro-benzyloxy)-phenyl]-1H-benzoimidazole-2-carbonyl}-amino)-acetic acid]
[1]
  IC50: 5.01 µM
[2]; [3]
  Cellular % EPO Stimulation: 1.50%

## COc1cccc(-c2ccc3[nH]c(C(=O)NCC(=O)O)nc3c2)c1 [Example 23, {[5-(3-Methoxy-phenyl)-1H-benzoimidazole-2-carbonyl]-amino}-acetic acid]
[1]
  IC50: 39.8 µM
[2]; [3]
  Cellular % EPO Stimulation: 1.40%

## O=C(O)CNC(=O)c1nc2ccc([N+](=O)[O-])cc2[nH]1 [Example 5, [(6-Nitro-1H-benzoimidazole-2-carbonyl)-amino]-acetic acid]
[1]
  IC50: 5.01 µM
[2]; [3]
  Cellular % EPO Stimulation: 0.00%

## O=C(O)c1cnn(-c2nc3cc(Cl)c(Cl)cc3[nH]2)c1 [Example 33, 1-(5,6-Dichloro-1H-benzoimidazol-2-yl)-1H-pyrazole-4-carboxylic acid]
[1]
  IC50: 0.1 µM
[2]; [3]
  Cellular % EPO Stimulation: 168.46%

## O=C(O)CNC(=O)c1nc2cc(-c3cc(Cl)ccc3F)ccc2[nH]1 [Example 28, {[5-(5-Chloro-2-fluoro-phenyl)-1H-benzoimidazole-2-carbonyl]-amino}-acetic acid]
[1]
  IC50: 25.1 µM
[2]; [3]
  Cellular % EPO Stimulation: 1.40%

## Cc1cc(-c2ccc3[nH]c(C(=O)NCC(=O)O)nc3c2)cc(C)c1OCc1cccc(Cl)c1 [Example 22, ({5-[4-(3-Chloro-benzyloxy)-3,5-dimethyl-phenyl]-1H-benzoimidazole-2-carbonyl}-amino)-acetic acid]
[1]
  IC50: 12.6 µM
[2]; [3]
  Cellular % EPO Stimulation: −1.06%

## O=C(O)c1cnn(-c2nc3cc(-c4cccc(OCc5ccc(Cl)cc5)c4)ccc3[nH]2)c1 [Example 45, 1-{5-[3-(4-Chloro-benzyloxy)-phenyl]-1H-benzoimidazol-2-yl}-1H-pyrazole-4-carboxylic acid]
[1]
  IC50: 0.0398 µM
[2]; [3]
  Cellular % EPO Stimulation: 2.10%

## O=C(O)CNC(=O)c1nc2cc(-c3cc(F)cc(OCc4ccccc4)c3)ccc2[nH]1 [Example 19, {[5-(3-Benzyloxy-5-fluoro-phenyl)-1H-benzoimidazole-2-carbonyl]-amino}-acetic acid]
[1]
  IC50: 6.31 µM
[2]; [3]
  Cellular % EPO Stimulation: −3.80%

## O=C(O)CNC(=O)c1nc2cc(NC(=O)c3ccccc3)ccc2[nH]1 [Example 29, [(5-Benzoylamino-1H-benzoimidazole-2-carbonyl)-amino]-acetic acid]
[1]
  IC50: 63.1 µM
[2]; [3]
  Cellular % EPO Stimulation: −3.30%

## O=C(O)CNC(=O)c1nc2cc(-c3cnc4ccccc4c3)ccc2[nH]1 [Example 20, [(5-Quinolin-3-yl-1H-benzoimidazole-2-carbonyl)-amino]-acetic acid]
[1]
  IC50: 1.58 µM
[2]; [3]
  Cellular % EPO Stimulation: 8.26%

## C[C@@H](NC(=O)c1nc2ccc(I)cc2[nH]1)C(=O)O [Example 54, (R)-2-[(5-Iodo-1H-benzoimidazole-2-carbonyl)-amino]-propionic acid]
[1]
  IC50: > 100 µM
[2]; [3]
  Cellular % EPO Stimulation: 7.50%

## CC(NC(=O)c1nc2ccccc2[nH]1)C(=O)O (stereo in doubt) [Example 50, (R)-2-[(1H-Benzoimidazole-2-carbonyl)-amino]-propionic acid]
[1]
  IC50: > 100 µM
[2]; [4]
  Cellular % EPO Stimulation: 9.50* %

## O=C(O)CNC(=O)c1nc2cc(-c3cccc(OCc4cccc(Cl)c4)c3)ccc2[nH]1 [Example 13, ({5-[3-(3-Chloro-benzyloxy)-phenyl]-1H-benzoimidazole-2-carbonyl}-amino)-acetic acid]
[1]
  IC50: 1.58 µM
[2]; [3]
  Cellular % EPO Stimulation: 1.20%

## C[C@H](NC(=O)c1nc2cc(Cl)c(Cl)cc2[nH]1)C(=O)O [Example 4, (S)-2-[(5,6-Dichloro-1H-benzoimidazole-2-carbonyl)-amino]-propionic acid]
[1]
  IC50: 25.1 µM
[2]; [3]
  Cellular % EPO Stimulation: 7.70%

## C[C@@H](NC(=O)c1nc2cc(Cl)c(Cl)cc2[nH]1)C(=O)O [Example 53, (R)-2-[(5,6-Dichloro-1H-benzoimidazole-2-carbonyl)-amino]-propionic acid]
[1]
  IC50: > 100 µM
[2]; [4]
  Cellular % EPO Stimulation: 11.3* %
